Patent publication US9833465B2 (priority 2013, dated 2017)
Where two headings read alike, the source gives them in different places.

What was measured:
Type in all cases: cell-based, human
[1] = tested on: WiDr colorectal adenocarcinoma; assay: cells; conditions: WiDr colon cancer cells, 3-6 days, crystal violet, triplicate
Protocol: (§1) Antiproliferative assay: The cytotoxicities of arimetamycins A (1), B (2) and C (3) were evaluated using four human cancer cell lines: HCT-116 colon carcinoma (ATCC; CCL-247) [M. G. Brattain, W. D. Fine, F. M. Khaled, J. Thompson, D. E. Brattain, Cancer Res 1981, 41, 1751-1756], WiDr colorectal adenocarcinoma (ATCC; CCL-218) [P. Noguchi, R. Wallace, J. Johnson, E. M. Earley, S. O'Brien, S. Ferrone, M. A. Pellegrino, J. Milstien, C. Needy, W. Browne, J. Petricciani, In vitro 1979, 15, 401-408], MDR-MB-231 breast adenocarcinoma (ATCC; HTB-26) [B. R. Brinkley, P. T. Beall, L. J. Wible, M. L. Mace, D. S. Turner, R. M. Cailleau, Cancer Res 1980, 40, 3118-3129] and H69AR multidrug resistant lung carcinoma (ATCC; CRL-11351) [S. E. Mirski, J. H. Gerlach, S. P. Cole, Cancer Res 1987, 47, 2594-2598] cell lines. HCT-116 and H69AR cells were grown in McCoy's 5A Modified Medium (Gibco) supplemented with 10% (v/v) FBS and RPMI-1640 (ATCC) supplemented with 20% (v/v) FBS, respectively. WiDr and MDA-MB-231 cells were grown in DMEM Medium (Gibco) supplemented with 10% (v/v) FBS. All the cell lines were incubated at 37° C. with 5% CO2. Cells in log phase growth were harvested by trypsinization. Cells were seeded into 96-well plates (HCT-116: 1,000 cells/well, WiDr: 3,000 cells/well, MDA-MB-231: 8,000 cells/well, H69AR: 25,000 cells/well) and incubated overnight at 37° C. with 5% CO2. Compounds 1-3 (in DMSO) were sequentially diluted (3-fold starting at 50 μg/mL) across a 96-well plate and 100 μL was transferred to the appropriate wells in the assay plates. Doxorubicin (Sigma-Aldrich) and daunorubicin (Sigma-Aldrich) were used as positive controls and DMSO was used as a negative control. The plates were incubated at 37° C. for 3-6 days depending on the growth rate and then evaluated for viability using either an MTT (3-(4,5-Dimethylthiazol-2-yl)-2,5-diphenyltetrazolium bromide) (MDR-MB-231 and H69AR) or crystal violet (HCT-116 and WiDr) based colorimetric assay [R. Supino, Methods in molecular biology 1995, 43, 137-149; bD. Zivadinovic, B. Gametchu, C. S. Watson, Breast Cancer Res 2005, 7, R101-112]. Cell viability is recorded based on the percent stain present in each well relative to no drug DMSO control wells. Assays were run in triplicate.

[2] = tested on: MDA-MB-231 breast adenocarcinoma; assay: cells; conditions: breast cancer cells, 3-6 days, MTT, triplicate, read-out: IC50 MDSMB231 Breast
Protocol: as §1

[3] = tested on: H69AR multidrug resistant lung carcinoma; assay: cells; conditions: multidrug resistant lung cancer cells, 3-6 days, MTT, triplicate, read-out: IC50 H69AR Lung/MDR
Protocol: as §1

[4] = tested on: HCT-116 colon carcinoma; assay: cells; conditions: HCT116 colon cancer cells, 3-6 days, crystal violet, triplicate
Protocol: Compounds were tested in HTC 116 cell line, which is an art-recognized isogenic human disease model predictive of activity in human patients. They were tested according to the following standard protocol:
as §1

[5] = tested on: representative colon, lung and breast cancer cell lines; assay: Anticancer activity against colon, lung and breast cancer cell lines (summary over the panel); conditions: for anticancer activity (in words): colon, lung (MDR) and breast cancer cell lines
Protocol: Arimetamycins A-C (1-3) were evaluated for anticancer activity against representative colon, lung and breast cancer cell lines as described below. The lung cancer line (H69AR) is multidrug resistant (MDR), showing high-level resistance to anthracyclines (50-fold) as well as many other anticancer agents including vincristine, etoposide and mitoxantrone. […] P-glycoprotein expression-dependent MDR is the most clinically significant resistance mechanism affecting the utility of anthracyclines. Compounds of the genus described herein are the first anthracyclines from Streptomyces culture that appear effective against MDR cancers.
as §1

Compound `COc1cc(O)c2c(c1)C(=O)c1cc3c(c(O)c1C2=O)[C@@H](O[C@H]1C[C@H](O)[C@@H](O)[C@H](C)O1)[C@H](OC)[C@](C)(O)C3=O` [Arimetamycin B(2), arimetamycin B] has an IC50 [1] of 7500 nM, an IC50 [2] of 29600 nM and an IC50 [3] of 47100 nM. For the same compound, the IC50 [4] was 1800 nM and the “anticancer activity (in words)” value [5] was “moderate activity”.
For `COc1cc(O)c2c(c1)C(=O)c1cc3c(c(O)c1C2=O)[C@@H](O[C@H]1C[C@](C)(N(C)C)[C@H](O[C@H]2C[C@](C)(O)[C@H](N(C)C)[C@H](C)O2)[C@H](C)O1)[C@H](OC)[C@](C)(O)C3=O` [Arimetamycin A(1), arimetamycin A], the IC50 [1] was 0.5 nM, the IC50 [2] was 164 nM and the IC50 [3] was 67 nM. The IC50 [4] was 2.5 nM, the “IC50 against all cell lines (in words)” value ([5]; all cell lines including the H69AR MDR cell line) was “nanomolar” and the “anticancer activity (in words)” value [5] was “highly active against both MDR and drug sensitive cell lines”. The “IC50 fold lower than doxorubicin or daunorubicin” value ([5]; compared with either doxorubicin or daunorubicin) was 2-10 fold.
For `COc1cccc2c1C(=O)c1c(O)c3c(c(O)c1C2=O)C[C@@](O)(C(C)=O)C[C@@H]3O[C@H]1C[C@H](N)[C@H](O)[C@H](C)O1` [Daunorubicin, daunorubicin, reference compound], the IC50 [1] was 5.5 nM, the IC50 [2] was 330 nM and the IC50 [3] was 4800 nM. For the same compound, the IC50 [4] was 6.8 nM.
Compound `COc1cc(O)c2c(c1)C(=O)c1cc3c(c(O)c1C2=O)[C@@H](O[C@H]1C[C@H](OC)[C@@H](O)[C@H](C)O1)[C@H](OC)[C@](C)(O)C3=O` [Arimetamycin C(3), arimetamycin C] has an IC50 [1] of 5200 nM, an IC50 [2] of 27700 nM and an IC50 [3] of 18800 nM. For the same compound, the IC50 [4] was 1400 nM and the “anticancer activity (in words)” value [5] was “moderate activity”.
With `COc1cccc2c1C(=O)c1c(O)c3c(c(O)c1C2=O)C[C@@](O)(C(=O)CO)C[C@@H]3O[C@H]1C[C@H](N)[C@H](O)[C@H](C)O1` [Doxorubicin, doxorubicin, reference compound] the IC50 ([1]; Homo sapiens) was 30.9 nM, the IC50 ([2]; Homo sapiens, MDA-MB-231) was 970 nM and the IC50 ([3]; Homo sapiens, H69AR) was 18400 nM. For the same compound, the IC50 ([4]; Homo sapiens, HCT-116) was 22.5 nM.
